In patent US20240156965A1, “DICHALCOGENIDE PRODRUGS” (Ludwig-Maximilians-Universitat Munchen, priority 2021, published 2024):
Positions count from the first letter of the chain named. Entries after “also recorded” stand apart in the source; their conditions may differ. Where two headings read alike, the source gives them in different places.

Experiments:
HeLa cells = assay: In vitro cell viability assay (resazurin); type: cell-based, human; conditions: 48 h incubation, read-out: EC50 (antiproliferation / cell viability)
Experimental: Assay Conditions: HeLa cells were cultured under standard conditions (Gao, L. et al. Cell Chemical Biology 2021, 28, 1-14. https://doi.org/10.1016/j.chembiol.2020.11.007), left to adhere for 24 h, then compounds were added from DMSO stock solution and adjusted to 1% vol DMSO. Cells were further incubated for 48 h, then 0.20 volume equivalents of a solution of resazurin in PBS (0.15 mg/mL) were added and incubated for 3 hours, then fluorescence (ex 544 nm, em 590 nm) was detected on a fluorescence platereader. Cell viability (%) is calculated from the fluorescence values, relative to a control experiment with no compound added.

[1] = Challenge with monothiol reductant GSH, cell-free fluorogenic cargo release; type: physicochemical; conditions: 10 μM probe; for sensitivity to GSH in GSH titration, signal F/F^TCEP: 3 h timepoint, GSH up to 10 mM; for cargo release when challenged with GSH / GSH system reductants: relevant cellular levels
Excerpt: (§1) This cell-free assay examined the stability of dichalcogenide-based reduction-triggered compounds of the invention when exposed to cellular monothiol reductant GSH, and its cellular partner reductants glutathione reductase (GR) and glutaredoxins (Grx1 and Grx2).
(§2) Assay Conditions: A black 96-well plate with black bottom was charged with solutions of fluorophore-releasing reduction-triggered probes that are compounds of the invention (P1, P2, P3, P6 and P7) or that are not compounds of the invention and reveal the performance of prior art systems (disulfide X26), reaching 100 μL final volume, 1% final DMSO, 10 μM probe, aq. TE buffer (pH 7.4), with the indicated concentrations of reductant (in FIG. 1a) or concentration ratios of reductant to probe (in FIG. 1b-d). TCEP (100 μM) was used as a quantitative reference reductant; and in the GR/GSH/Grx assays (FIG. 1c-d), GR was used at 20 nM, GSH at 100 μM, to maintain Grx in a reduced state suitable for challenging the probes without supplying a high concentration of either GSH or GR. Reaction mixtures were incubated at 37° C. for up to 6 h while measuring fluorescence intensity F over time, using a BMG Labtech FLUOstar Omega platereader (λexc=355 nm, λem=530 nm).
(§3) Data Representation: F^TCEP is the maximum possible fluorescence increase, corresponding to complete reduction-triggered cargo release by the TCEP incubation. F/F^TCEP thus gives the fluorescence intensity, as a fraction of the maximum possible fluorescence signal, at the indicated times.

[2] = test system: glutaredoxins (Grx1 and Grx2) with GR and GSH; assay: Challenge with GR/GSH/Grx system reductants, cell-free; type: biochemical; conditions: 10 μM probe, GR 20 nM, GSH 100 μM, Grx1 or Grx2 up to physiological concentrations
Excerpt: as §1, §2, §3

[3] = target: T1, human recombinant thioredoxin reductase 1 (TrxR1) (Homo sapiens, UniProt Q16881); assay: Enzymatic activation assay with TrxR1, cell-free; type: biochemical; conditions: 10 μM probe; for cargo release on exposure to TrxR1 (timecourse): 20 nM TrxR1, 100 μM NADPH, 37 °C; for response in TrxR titration: TrxR down to 5 nM
T1 sequence (Q16881 1-499 isoform Q16881-5): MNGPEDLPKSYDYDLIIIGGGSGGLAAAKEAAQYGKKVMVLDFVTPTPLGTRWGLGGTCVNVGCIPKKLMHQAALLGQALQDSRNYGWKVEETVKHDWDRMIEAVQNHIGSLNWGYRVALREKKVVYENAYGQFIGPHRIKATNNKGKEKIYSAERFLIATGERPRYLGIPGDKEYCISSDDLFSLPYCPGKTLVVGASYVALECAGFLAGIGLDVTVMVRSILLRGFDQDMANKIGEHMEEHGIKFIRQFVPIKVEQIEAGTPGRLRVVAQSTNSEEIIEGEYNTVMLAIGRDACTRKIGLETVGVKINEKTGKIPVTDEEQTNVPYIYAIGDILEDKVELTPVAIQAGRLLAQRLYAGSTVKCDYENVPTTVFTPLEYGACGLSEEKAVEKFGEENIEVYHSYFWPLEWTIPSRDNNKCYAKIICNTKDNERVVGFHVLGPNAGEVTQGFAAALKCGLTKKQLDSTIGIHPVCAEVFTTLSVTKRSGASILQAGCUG
Experimental: (§4) This cell-free assay (see FIG. 2) examined the processing of dichalcogenide-based fluorophore-releasing reduction-triggered probes that are compounds of the invention, by components of the cellular thioredoxin system.
(§5) Assay conditions and data representation: A black 96-well plate with black bottom was charged with solutions of probes (P1, P2, P3, P6, P7) to reach final reaction conditions: 100 μL of aq. TE buffer (pH 7.4), 10 μM probe concentration, 1 vol % DMSO, and 20 nM of human recombinant thioredoxin reductase 1 (TrxR1; in FIG. 1a), or 20 nM of either TrxR1 or thioredoxin reductase Sec498Cys mutant (TrxR1 U498C or “mut”; in FIG. 1b), or the indicated probe-to-reductant concentration ratios of TrxR1 (in FIG. 1c) or human recombinant thioredoxin 1 (Trx1; in FIG. 1d); with the final step being the addition of NADPH (100 μM final). The reaction mixtures were incubated at 37° C. for 3 to 6 h as shown with timecourse measurements of fluorescence as for FIG. 1. Data representation as for FIG. 1.

[4] = target: T2, thioredoxin reductase Sec498Cys mutant (TrxR1 U498C) (Homo sapiens, UniProt Q16881); assay: Enzymatic activation assay with TrxR1 Sec498Cys mutant, cell-free; type: biochemical; conditions: 10 μM probe, 20 nM mutant, 100 μM NADPH
T2 sequence (Q16881 with tags, fused parts or gaps isoform Q16881-5): T1 sequence (Q16881 1-499 isoform Q16881-5) with U498C
Experimental: as §4, §5

[5] = target: T3, human recombinant thioredoxin 1 (Trx1) (Homo sapiens, UniProt P10599); assay: Trx1 titration in Trx1/TrxR1 system, cell-free; type: biochemical; conditions: 10 μM probe
T3 sequence (P10599 2-105 limits assumed): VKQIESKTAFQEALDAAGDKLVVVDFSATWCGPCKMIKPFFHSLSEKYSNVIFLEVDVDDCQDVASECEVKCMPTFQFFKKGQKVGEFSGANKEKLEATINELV
Experimental: as §4, §5

[6] = test system: HeLa cervical cancer cell line; assay: Cellular reduction assay in HeLa cells (fluorescence timecourse); type: cell-based, human; conditions: time- and dose-dependence
Experimental: (§6) Assay Conditions: Cells were cultured under standard conditions (Gao, L. et al. Cell Chemical Biology 2021, 28, 1-14. https://doi.org/10.1016/j.chembiol.2020.11.007), left to adhere for 24 h, then compounds were added to 100 μM with 1% vol DMSO. Fluorescence timecourse measurements were acquired as in the chemoreductant assay, with all conditions in triplicates.
(§7) Data Representation: F.I.(t) is the fluorescence intensity signal increase as compared to time zero signal (fluorescence intensity immediately following compound addition, before probe activation could occur), in arbitrary units although with the same detection settings for all probes releasing the same cargo. This corresponds to reduction-triggered cargo release.

[7] = test system: A549 lung cancer cell line; assay: Cellular reduction assay in A549 cells; type: cell-based, human; conditions: time- and dose-dependence
Experimental: as §6, §7

[8] = test system: selenium-dependent reductases in cells; assay: Cellular reduction assay with selenium starvation or supplementation; type: cell-based
Experimental: as §6, §7

TrxR1 = target: T4, TrxR1 (Mus musculus, UniProt Q9JMH6); assay: Cellular reduction assay in MEF cells with TrxR1 knockout; type: cell-based; conditions: MEF wildtype vs TrxR1 knockout
T4 construct: P6 is processed by native (selenium-incorporating) TrxR1 in cells; endogenous in cells; host or cells: MEF wildtype and MEF with TrxR1 knockout
T4 sequence (Q9JMH6 1-499 isoform Q9JMH6-2): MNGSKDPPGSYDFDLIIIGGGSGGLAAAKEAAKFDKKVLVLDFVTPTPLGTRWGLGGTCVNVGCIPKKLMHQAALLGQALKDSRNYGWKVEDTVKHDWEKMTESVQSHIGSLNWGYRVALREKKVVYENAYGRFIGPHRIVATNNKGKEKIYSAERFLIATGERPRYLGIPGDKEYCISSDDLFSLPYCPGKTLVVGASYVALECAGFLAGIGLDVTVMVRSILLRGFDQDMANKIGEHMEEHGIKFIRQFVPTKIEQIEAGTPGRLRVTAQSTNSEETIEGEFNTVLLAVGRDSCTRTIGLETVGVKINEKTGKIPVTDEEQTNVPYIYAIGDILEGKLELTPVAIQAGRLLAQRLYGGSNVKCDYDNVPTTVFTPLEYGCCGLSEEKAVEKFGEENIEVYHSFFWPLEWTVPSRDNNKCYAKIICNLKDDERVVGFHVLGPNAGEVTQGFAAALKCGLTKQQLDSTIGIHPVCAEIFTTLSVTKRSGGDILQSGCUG
Experimental: as §6, §7

TrxR = target: T5, TrxR (Homo sapiens, UniProt Q16881); assay: Cellular reduction assay in HeLa cells with chemical TrxR inhibition (TRi compounds); type: cell-based
T5 construct: P6 is processed by native (selenium-incorporating) TrxR1 in cells; endogenous in cells; host or cells: HeLa
T5 sequence (Q16881 1-499 isoform Q16881-5): T1 sequence (Q16881 1-499 isoform Q16881-5)
Experimental: as §6, §7

[9] = low concentration of GSH, within 20 minutes; cited from earlier work

SMILES | sensitivity to GSH in GSH titration, signal F/F^TCEP [1] | cargo release when challenged with GSH / GSH system reductants [1] | triggering by GR/GSH/Grx systems [2] | cargo release on exposure to TrxR1 (timecourse) [3] | response in TrxR titration [3] | cargo release by TrxR1 U498C mutant [4] | cargo release with increasing Trx1 at fixed TrxR1 [5] | fluorescence signal generation F.I.(t) in HeLa cells [6] | effect of selenium starvation/supplementation on cellular signal generation [8] | further results
CN(C(=O)Oc1cc2c(c3ccccc13)[C@H](CCl)CN2C(=O)c1cc2cc(OCCCN3CCC3)ccc2[nH]1)[C@H]1CCS[Se]C1 [P8] | – | – | – | – | – | – | – | – | – | EC50 (HeLa cells): < 100 nM; EC50 (HeLa cells; Homo sapiens, 48 h): ~60 nM
CN1CCN(C(=O)CCN(C(=O)Oc2ccc(Cl)cc2-c2nc3ccc(Cl)cc3c(=O)[nH]2)[C@H]2CCS[Se]C2)CC1 [P6] | completely insensitive | totally resisted releasing cargo | resist triggering | release their cargo rapidly; also recorded: release cargo very rapidly | excellently responsive; also recorded: sensitively | do not respond to the mutant; also recorded: did not cause cargo release | identical release of cargo; also recorded: did not affect the outcomes | strong time- and dose-dependent fluorescent signal increase; also recorded: generated strong fluorescent signal | strongly suppressed by selenium starvation | fluorescence signal generation in A549 cells [7]: time- and dose-dependent fluorescence increase; also recorded: dose- and time-dependently generated signal; effect of TrxR1 knockout on cellular signal (TrxR1): almost entirely suppressed by knockout; effect of chemical TrxR inhibition on cellular signal (TrxR): suppresses P6 signal generation; also recorded: almost entirely suppressed
COc1cccc2ccc3c(c12)Oc1cc(NC(=O)OCC[Se][Se]CCO)ccc1C31OC(=O)c2ccccc21 (centres unmarked) [E2] | – | – | – | – | – | – | – | – | – | fluorescence signal with GSH [9]: strong signal turn-on
CN1CCN(C(=O)CCN(C(=O)Oc2ccc(Cl)cc2-c2nc3ccc(Cl)cc3c(=O)[nH]2)[C@H]2CC[Se]SC2)CC1 [P7] | very low sensitivity | high resistance to GSH challenge | resist triggering; also recorded: total resistance to Grx challenge | release their cargo rapidly; also recorded: release cargo very rapidly | excellently responsive; also recorded: sensitively | do not respond to the mutant; also recorded: did not cause cargo release | identical release of cargo; also recorded: did not affect the outcomes | strong time- and dose-dependent fluorescent signal increase; also recorded: generated strong fluorescent signal | – | –
CNCCSSCCN(C)C(=O)Oc1ccc(Cl)cc1-c1nc2ccc(Cl)cc2c(=O)[nH]1 [X26, 4-chloro-2-(6-chloro-4-oxo-3,4-dihydroquinazolin-2-yl)phenyl methyl(2-((2-(methylamino)ethyl)disulfaneyl)ethyl)carbamate, reference compound] | – | – | – | – | – | – | – | also generated signal | not sensitive to selenium supplementation | response to GSH-triggered release of fluorescent cargo PQ-OH (timecourse) ([1]; subphysiological GSH 1 mM, TE buffer pH 7.4, 37 °C): rapidly and strongly affected; also recorded: rapid response
